In patent US20200172483A1, “HETEROCYCLIC SMALL MOLECULE MODULATORS OF HUMAN STING” (Curadev Pharma Limited, priority 2017, published 2020):

Molecular target: T1, WT/R232 STING protein (Homo sapiens, UniProt Q86WV6, H232R)
T1 construct: host or cells: HEK293T
Test: Luciferase reporter assay in HEK293T-hSTING-Luciferase cells (R232)
Type: cell-based
Settings: 20 hr stimulation, EC50 range
Source text: • a) Stable STING expressing cells—Stable HEK293T STING-expressing cell lines were generated using plasmids purchased from Invivogen, CA, USA, that contain STING cDNA cloned into the pUNO-1 vector under hEF1-HTLV promoter and containing the Blasticidin selection cassette. The plasmids hSTING (R232), hSTING (H232), hSTING (HAQ) were directly procured from Invivogen while hSTING (AQ) and hSTING (Q) were derived from hSTING (HAQ) and hSTING (R232) plasmids respectively by using a PCR based site directed mutagenesis method. These vectors were individually transfected into HEK293T cells using Lipofectamine (Invitrogen) and transfected cells were selected under Blasticidin selection. These transfected cells were further subjected to clonal selection using the limiting dilution method to obtain clonally pure populations of HEK cells transfected with each of the above mentioned human STING variants. Only those clones were selected in which ligand independent activation of STING was minimal. • b) Stable Luciferase reporter gene expressing cells—Stable HEK293T Luciferase reporter gene expressing cell lines were generated using pCDNA4 plasmids under an IRF-inducible promoter. This promoter is comprised of five tandem interferon-stimulated response elements (ISRE) fused to an ISG54 minimal promoter. This vector was transfected into HEK293T cells using Lipofectamine (Invitrogen) and transfected cells were selected under Zeocin selection. These transfected cells were further subjected to clonal selection using the limiting dilution method to obtain clonally pure populations of HEK cells transfected the Luciferase reporter construct. Only those clones were selected in which ligand independent induction of luciferase was minimal.
5×10^5 clonally selected HEK293T-hSTING-Luciferase cells were seeded in 384-well plates in growth medium and stimulated with novel compounds. After 20 hr of stimulation supernatant were removed and secretary reporter gene activity were measured using the Quanti-Luc detection system (Invivogen) on a Spectramax i3X luminometer.
All compounds were first tested in a primary screen using WT/R232 STING protein to obtain a ‘fold-induction’ over baseline levels of protein activity.

T1 sequence (Q86WV6 whole entry H232R): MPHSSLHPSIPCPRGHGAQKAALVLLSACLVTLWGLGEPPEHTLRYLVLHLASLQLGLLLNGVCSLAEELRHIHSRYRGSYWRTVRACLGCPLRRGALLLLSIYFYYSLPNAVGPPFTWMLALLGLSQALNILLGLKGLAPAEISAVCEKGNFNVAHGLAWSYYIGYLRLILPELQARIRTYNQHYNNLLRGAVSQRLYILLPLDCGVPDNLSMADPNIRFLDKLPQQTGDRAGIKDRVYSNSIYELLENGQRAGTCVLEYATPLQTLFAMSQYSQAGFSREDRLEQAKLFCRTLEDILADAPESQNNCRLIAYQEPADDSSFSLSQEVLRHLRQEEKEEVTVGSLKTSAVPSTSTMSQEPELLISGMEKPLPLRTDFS

| SMILES | EC50 |
| --- | --- |
| CC1(C)C(=O)N(Cc2ccccc2F)c2cc(C(=O)NCc3ccco3)ccc21 [Example 1, 1-(2-Fluorobenzyl)-N-(furan-2-ylmethyl)-3,3-dimethyl-2-oxoindoline-6-carboxamide] | 1 to 10 µM |
| CC1(C)C(=O)N(Cc2ccccc2F)c2cc(C(=O)N(CC(=O)O)Cc3ccco3)ccc21 [Example 3, 2-(1-(2-fluorobenzyl)-N-(furan-2-ylmethyl)-3,3-dimethyl-2-oxoindoline-6-carboxamido)acetic acid] | > 10 µM |
| CC1(C)C(=O)N(Cc2c(F)cccc2Cl)c2cc(C(=O)NCc3cccs3)ccc21 [Example 7, 1-(2-chloro-6-fluorobenzyl)-3,3-dimethyl-2-oxo-N-(thiophen-2-ylmethyl)indoline-6-carboxamide] | 1 to 10 µM |
| CC1(C)C(=O)N(Cc2c(F)cccc2Cl)c2cc(C(=O)NCc3cccc(Cl)c3)ccc21 [Example 9, 1-(2-chloro-6-fluorobenzyl)-N-(3-chlorobenzyl)-3,3-dimethyl-2-oxoindoline-6-carboxamide] | 1 to 10 µM |
| CC1(C)C(=O)N(Cc2ccccc2)c2cc(C(=O)NCc3ccccc3)ccc21 [Example 10, N,1-dibenzyl-3,3-dimethyl-2-oxoindoline-6-carboxamide] | 1 to 10 µM |
| Cc1cc(CN2C(=O)C(C)(C)c3ccc(C(=O)NCc4c(F)cc(F)cc4F)cc32)cc(C(F)(F)F)c1 [Example 15, 3,3-dimethyl-1-(3-methyl-5-(trifluoromethyl)benzyl)-2-oxo-N-(2,4,6-trifluorobenzyl)indoline-6-carboxamide] | 1 to 10 µM |
| CC1(C)C(=O)N(Cc2cccc(C(F)(F)F)c2)c2cc(C(=O)NCc3c(F)cc(F)cc3F)ccc21 [Example 17, 3,3-dimethyl-2-oxo-N-(2,4,6-trifluorobenzyl)-1-(3-(trifluoromethyl)benzyl)indoline-6-carboxamide] | 1 to 10 µM |
| CC1C(=O)N(Cc2c(F)cccc2Cl)c2cc(C(=O)NCc3c(F)cc(F)cc3F)ccc21 (stereo not drawn) [Example 21, 1-(2-chloro-6-fluorobenzyl)-3-methyl-2-oxo-N-(2,4,6-trifluorobenzyl)indoline-6-carboxamide] | > 10 µM |
| CC1(C)C(=O)N(Cc2ccncc2)c2cc(C(=O)NCc3c(F)cc(F)cc3F)ccc21 [Example 22, 3,3-dimethyl-2-oxo-1-(pyridin-4-ylmethyl)-N-(2,4,6-trifluorobenzyl)indoline-6-carboxamide] | 1 to 10 µM |
| Cc1ccc(CNC(=O)c2ccc3c(c2)N(Cc2c(F)cccc2Cl)C(=O)C3(C)C)s1 [Example 24, 1-(2-chloro-6-fluorobenzyl)-3,3-dimethyl-N-((5-methylthiophen-2-yl)methyl)-2-oxoindoline-6-carboxamide] | 1 to 10 µM |
| Cc1cccc(CNC(=O)c2ccc3c(c2)N(Cc2cc(F)cc(F)c2)C(=O)C3(C)C)n1 [Example 28, 1-(3,5-difluorobenzyl)-3,3-dimethyl-N-((6-methylpyridin-2-yl)methyl)-2-oxoindoline-6-carboxamide] | > 10 µM |
| Cc1nnc(CNC(=O)c2ccc3c(c2)N(Cc2cc(F)cc(F)c2)C(=O)C3(C)C)o1 [Example 29, 1-(3,5-difluorobenzyl)-3,3-dimethyl-N-((5-methyl-1,3,4-oxadiazol-2-yl)methyl)-2-oxoindoline-6-carboxamide] | > 10 µM |
| Cc1ncc(CNC(=O)c2ccc3c(c2)N(Cc2c(F)cccc2Cl)C(=O)C3(C)C)o1 [Example 31, 1-(2-chloro-6-fluorobenzyl)-3,3-dimethyl-N-((2-methyloxazol-5-yl)methyl)-2-oxoindoline-6-carboxamide] | > 10 µM |
| Cc1ccnc(CNC(=O)c2ccc3c(c2)N(Cc2c(F)cccc2Cl)C(=O)C3(C)C)c1 [Example 32, 1-(2-chloro-6-fluorobenzyl)-3,3-dimethyl-N-((4-methylpyridin-2-yl)methyl)-2-oxoindoline-6-carboxamide] | > 10 µM |
| CC1(C)C(=O)N(Cc2cc(F)cc(F)c2)c2c1ccc(C(=O)NCc1cc3ccccc3o1)c2F [Example 34, N-(benzofuran-2-ylmethyl)-1-(3,5-difluorobenzyl)-7-fluoro-3,3-dimethyl-2-oxoindoline-6-carboxamide] | > 10 µM |
